The record followed here is patent US20180135134A1, “TARGETED SELECTION OF PATIENTS FOR TREATMENT WITH CORTISTATIN DERIVATIVES” (President and Fellows of Harvard College, priority 2015, published 2018).

The term GI50 denotes the concentration at which growth is held to half of that of the control. The low end stands for greater sensitivity of the cells, the high end for lower sensitivity of the cells.

The test system of assay [1] is UKE-1. As to the kind of experiment: Synergy assay with ruxolitinib (Chou-Talalay), UKE-1. The class given is cell-based, human. Particulars: combination of cortistatin A with JAK1/2 inhibitor ruxolitinib, FIG. 5. The method, then: SET-2 and UKE-1 cells were co-treated with constant ratios of ruxolitinib to CA, 1 to 1 or 10 to 1, in a 96-well growth assay format with a range of 2-fold dose dilutions of compounds. SET-2 and UKE-1 cells were also treated with ruxolitinib alone or CA alone in a 2-fold dilution series. The Chou-Talalay combination index values at 50% growth inhibition (Fa=0.5) were determined using CalcuSyn software (see Chou, T. C. Cancer Res. 2010 Jan. 15; 70(2):440-6) (FIG. 5).

Assay [2] relates to MCF-7. As to the kind of experiment: Soft agar growth assay (Alamar Blue). Particulars: Breast cancer, ER-alpha positive, 100 nM cortistatin A. On the technique in general: Alamar Blue is a resazurin reagent that responds to reducing activity.
Description: (§1) For the 62 cell lines 96 well suspension cell culture plates were prepared. 100 μL of the soft agar bottom layer (0.6% final concentration in complete medium) was poured and left to solidify. 50 μL of the soft agar top layer (0.4% final concentration) containing the corresponding cells and cell number were then added on top, solidified and incubated at 37° C., 10% CO2. After the soft agar had solidified, the test items were added at indicated final concentrations into the inner wells of the plate. Subsequently, the assay was incubated in cell culture incubators for 8 to 14 days. Finally, the assay was developed using Alamar Blue and upon 1-5 h of incubation at 37° C. fluorescence intensity was determined (excitation: 560 nm; emission: 590 nm). As low control, cells were treated with 1E-05M Staurosporine (6fold values). As high control, cells were treated with 0.1% DMSO (solvent control, 6 fold values).
(§2) Raw data were converted into percent soft agar growth relative to high controls (solvent 0.1% DMSO) and low controls (1E-05M Staurosporine), which were set to 100% and 0%, respectively.
For assay [3], the system named is Caki-2. As to the kind of experiment: Soft agar growth assay (Alamar Blue). Particulars: clear cell renal cell carcinoma, Loss of function VHL mutation (VHL negative), 100 nM cortistatin A.
Description: as §1, §2
Assay [4] has as its system SK-N-SH. Nature of the assay: Soft agar growth assay (Alamar Blue). Particulars: Neuroblastoma, 100 nM cortistatin A.
Description: as §1, §2
For assay [5], the system named is SK-N-MC. As to the kind of experiment: Soft agar growth assay (Alamar Blue). Particulars: Neuroblastoma, EWS-FLI1, 100 nM cortistatin A.
Description: as §1, §2
Assay [6] relates to JeKo-1. As to the kind of experiment: Cellular proliferation assay (CellTiter-Glo). Particulars: Homo sapiens. (In general: ATP-based viability assays read luminescence as a measure of living cells.)
Description: (§3) All suspension cells were plated (96-well) in triplicate at 5,000-30,000 cells per well for testing (n=3). Viable cell number was estimated after 3, 7 and 10 days by counting viable cells from one vehicle well, generating a cell dilution series, transferring 20 ml per well in duplicate to a 384-well plate, and performing a linear regression to CellTiter-Glo (Promega) response (SPECTRAmax M3, Molecular Devices). Cells from all wells were also fourfold diluted in media and transferred in duplicate for CellTiter-Glo measurement. On days 3 and 7, an equal volume for all wells was split-back with fresh media and compound, such that the resulting cell density for the vehicle well matched the initial seeding density. For days 7 and 10, estimated cell number represents the split-adjusted theoretical cell number. HCT116 were plated (96-well) in triplicate at 250 cells per well. Cells were incubated in the presence of vehicle, 1 μM paclitaxel, or compound. On day 7, CellTiter-Blue (Promega) response was measured and values were normalized to vehicle (100% growth) and paclitaxel (0% growth). For growth assays with inhibitors, n=3 for each concentration with two independent experiments.
For assay [7], the system named is ALL-SIL. Nature of the assay: Cellular proliferation assay (CellTiter-Glo). Particulars: Homo sapiens.
Description: (§4) All suspension cells were plated (96-well) in triplicate at 5,000-30,000 cells per well for testing (n=3). Viable cell number was estimated after 3, 7 and 10 days by counting viable cells from one vehicle well, generating a cell dilution series, transferring 20 ml per well in duplicate to a 384-well plate, and performing a linear regression to CellTiter-Glo (Promega) response (SPECTRAmax M3, Molecular Devices). Cells from all wells were also fourfold diluted in media and transferred in duplicate for CellTiter-Glo measurement. On days 3 and 7, an equal volume for all wells was split-back with fresh media and compound, such that the resulting cell density for the vehicle well matched the initial seeding density. For days 7 and 10, estimated cell number represents the split-adjusted theoretical cell number. […] For growth assays with inhibitors, n=3 for each concentration with two independent experiments.
In assay [8] the test system is MV4;11. As to the kind of experiment: Cellular proliferation assay (CellTiter-Glo). Particulars: Homo sapiens.
Description: as §4
In assay [9] the test system is TF-1. Nature of the assay: Cellular proliferation assay (CellTiter-Glo). Particulars: Homo sapiens.
Description: as §3
The subject of assay [10] is K562. Nature of the assay: Cellular proliferation assay (CellTiter-Glo). Particulars: Homo sapiens.
Description: as §4
Assay [11] has as its system HCT116. Nature of the assay: Cellular proliferation assay (CellTiter-Blue, day 7). Particulars: Homo sapiens, HCT-116.
Description: as §3
Assay [12] relates to SET-2 cells. Nature of the assay: SET-2 differentiation assay (CD41/CD61 flow cytometry). Particulars: 50 nM cortistatin A, 3 days; FIG. 3. A general note: A flow cytometer gives signals particle by particle.
Description: Cell pellets were collected at 4° C., washed three times with cold PBS, and stained with anti-CD61-PE (ab91128) or anti-CD41-PerCP (ab134373) and analyzed by flow cytometry.

In the case of `CN(C)[C@H]1C[C@@]23CC[C@@]4(O2)C(=CC[C@]2(C)[C@@H](c5ccc6ccncc6c5)CC[C@H]24)C=C3[C@@H](O)[C@@H]1O` [Cortistatin A, cortistatin A], in assay [1], the “combination index (synergy) for inhibition of proliferation” value is “synergizes”. Also, the “% growth rel. to vehicle” value is 49% in [2], 18% in assay [3], 29% in assay [4] and 45% in assay [5]. Moreover, the GI50 in assay [6] was less than 1 nM; in assay [7], 2 nM; in assay [8] (MV4-11), 6 nM; in assay [8] (MV4-11, 240 h) it was 6 nM; in assay [9] it was 350 nM; in assay [10] (K562) it was greater than 1000 nM. In addition, the GI50 was greater than 1000 nM in assay [10] (K562, 240 h) and greater than 1000 nM in assay [11]. The “differentiation of SET-2 cells (percent of cells with megakaryocytic markers CD41 and CD61)” value in assay [12] is recorded as “induces differentiation of SET-2 cells”.
